Test results taken from ChEMBL document CHEMBL5465560, “Selectivity Literature for EUbOPEN Chemogenomic Library” (2024).

Key:
[1] = target: Mitogen-activated protein kinase kinase kinase kinase 4 (Homo sapiens, UniProt O95819); assay: Selectivity interaction (KinomeScan (DiscoverX)) EUB0000092b MAP4K4; details: at 10 µM
[2] = target: Serine/threonine-protein kinase 10 (Homo sapiens) (UniProt O94804); assay: Selectivity interaction (Upstate Kinase Profiler service (Millipore)) EUB0000056c STK10; details: at 1 µM
[3] = system: Epidermal growth factor receptor (Homo sapiens), P00533 [UNDEFINED MUTATION]; assay: Selectivity interaction (KinomeScan (DiscoverX)) EUB0000655a EGFR; details: at 10 µM
[4] = target: Casein kinase I isoform alpha (Homo sapiens, UniProt P48729); assay: Selectivity interaction (ProQinase) EUB0000171b CSNK1A1
[5] = target: Serine/threonine-protein kinase SIK1 (Homo sapiens) (UniProt P57059); assay: Selectivity interaction (ProQinase) EUB0000171b SIK1
[6] = target: Serine/threonine-protein kinase NIM1 (Homo sapiens, UniProt Q8IY84); assay: Selectivity interaction (Kinase panel (Z-LYTE Assay)) EUB0001632a NIM1K; details: at 10 µM
[7] = target: Bromodomain-containing protein 2 (Homo sapiens) (UniProt P25440); assay: Selectivity interaction (Bromodomain panel (DSF asssay)) EUB0000270b BRD2
[8] = target: Histone-lysine N-methyltransferase 2C (Homo sapiens) (UniProt Q8NEZ4); assay: Selectivity interaction (Transferase panel (protein, RNA, and DNA methyltransferases. and EP300 (acetyltransferase))) EUB0000270b MLL3; details: at 10 µM
[9] = target: Calcium/calmodulin-dependent protein kinase type II subunit beta (Homo sapiens) (UniProt Q13554); assay: Selectivity interaction (ActivX KiNativ screen (kinase selectivity in THP-1 cell lysates)) EUB0000639a CAMK2B; assay type: subcellular; details: lysate
[10] = target: Sodium-dependent noradrenaline transporter (Homo sapiens, UniProt P23975); assay: Selectivity interaction (Panel of kinases, GPCRs, ion channels and transporters (enzymatic assay)) EUB0000223bCl SLC6A2
[11] = target: Mitogen-activated protein kinase kinase kinase 1 (Homo sapiens, UniProt Q13233); assay: Selectivity interaction (KinomeScan (DiscoverX)) EUB0000607a MAP3K1; details: at 10 µM
[12] = target: T1, Ephrin type-A receptor 8 (Homo sapiens) (UniProt P29322); assay: Selectivity interaction (KinomeScan (DiscoverX)) EUB0000595a EPHA8; details: at 10 µM
T1 sequence (whole entry): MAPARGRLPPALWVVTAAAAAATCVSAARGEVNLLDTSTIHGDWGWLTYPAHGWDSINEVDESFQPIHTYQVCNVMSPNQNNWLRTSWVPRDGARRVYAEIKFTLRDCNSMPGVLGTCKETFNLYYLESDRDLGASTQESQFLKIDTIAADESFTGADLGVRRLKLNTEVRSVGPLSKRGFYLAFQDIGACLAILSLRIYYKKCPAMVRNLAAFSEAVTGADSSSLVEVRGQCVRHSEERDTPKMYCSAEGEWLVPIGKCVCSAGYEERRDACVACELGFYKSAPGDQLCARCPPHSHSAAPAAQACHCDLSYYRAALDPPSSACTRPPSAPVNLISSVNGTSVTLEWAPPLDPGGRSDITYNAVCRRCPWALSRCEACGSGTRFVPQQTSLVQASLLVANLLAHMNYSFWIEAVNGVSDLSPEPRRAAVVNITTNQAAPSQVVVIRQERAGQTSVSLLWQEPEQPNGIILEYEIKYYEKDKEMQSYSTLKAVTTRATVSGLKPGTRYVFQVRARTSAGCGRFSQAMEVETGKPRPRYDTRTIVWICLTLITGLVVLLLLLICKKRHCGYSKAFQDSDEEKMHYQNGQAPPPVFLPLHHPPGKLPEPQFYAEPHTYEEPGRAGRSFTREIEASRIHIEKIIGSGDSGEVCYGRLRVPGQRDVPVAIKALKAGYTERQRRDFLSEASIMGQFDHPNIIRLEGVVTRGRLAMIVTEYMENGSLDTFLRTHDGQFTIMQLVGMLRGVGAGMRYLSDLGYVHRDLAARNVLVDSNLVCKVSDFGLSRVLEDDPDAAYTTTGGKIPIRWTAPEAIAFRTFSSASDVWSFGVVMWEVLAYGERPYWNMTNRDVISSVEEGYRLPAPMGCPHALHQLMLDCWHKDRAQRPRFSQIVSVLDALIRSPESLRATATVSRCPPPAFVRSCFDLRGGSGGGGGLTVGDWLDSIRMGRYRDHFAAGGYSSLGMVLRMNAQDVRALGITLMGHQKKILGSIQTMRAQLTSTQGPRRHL

[13] = system: Phosphatidylinositol 4,5-bisphosphate 3-kinase catalytic subunit alpha isoform (Homo sapiens), P42336 [E545K]; details: at 10 µM
[14] = target: Mitogen-activated protein kinase kinase kinase 9 (Homo sapiens) (UniProt P80192); assay: Selectivity interaction (Kinase panel (literature)) EUB0001199aCl MAP3K9; details: at 1 µM
[15] = target: Phosphatidylinositol 4-phosphate 3-kinase C2 domain-containing subunit beta (Homo sapiens) (UniProt O00750); assay: Selectivity interaction (KinomeScan (DiscoverX)) EUB0000618a PIK3C2B; details: at 10 µM
[16] = target: Dual specificity protein kinase CLK4 (Homo sapiens, UniProt Q9HAZ1); assay: Selectivity interaction (Ambit KINOMEscan and KiNATiv profiling in Jurkat cells) EUB0000090b CLK4; assay type: cell-based; details: at 1 µM
[17] = target: Ribosomal protein S6 kinase alpha-1 (Homo sapiens, UniProt Q15418); assay: Selectivity interaction (Ambit KINOMEscan and KiNATiv profiling in Jurkat cells) EUB0000090b RPS6KA1; assay type: cell-based; details: at 1 µM

Chain of Calcium/calmodulin-dependent protein kinase type II subunit beta (Homo sapiens) (Q13554 whole entry): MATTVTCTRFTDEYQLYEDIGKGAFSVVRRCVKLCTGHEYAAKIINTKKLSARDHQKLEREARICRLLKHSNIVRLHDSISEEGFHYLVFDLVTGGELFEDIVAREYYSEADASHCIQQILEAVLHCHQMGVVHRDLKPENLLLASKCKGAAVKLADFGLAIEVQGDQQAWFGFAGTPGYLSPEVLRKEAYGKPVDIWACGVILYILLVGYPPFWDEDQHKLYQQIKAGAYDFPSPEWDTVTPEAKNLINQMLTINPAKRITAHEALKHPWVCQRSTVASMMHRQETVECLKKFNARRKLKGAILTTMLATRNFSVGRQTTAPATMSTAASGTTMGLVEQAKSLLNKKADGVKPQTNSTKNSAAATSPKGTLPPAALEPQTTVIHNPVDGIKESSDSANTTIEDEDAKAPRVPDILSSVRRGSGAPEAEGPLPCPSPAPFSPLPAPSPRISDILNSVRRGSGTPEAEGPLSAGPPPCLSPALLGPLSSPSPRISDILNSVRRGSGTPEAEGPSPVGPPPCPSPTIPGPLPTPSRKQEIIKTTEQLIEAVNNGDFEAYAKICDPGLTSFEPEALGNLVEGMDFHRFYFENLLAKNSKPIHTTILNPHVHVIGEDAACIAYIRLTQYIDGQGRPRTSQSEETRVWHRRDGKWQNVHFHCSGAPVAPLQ
Chain of Serine/threonine-protein kinase SIK1 (Homo sapiens) (P57059 whole entry): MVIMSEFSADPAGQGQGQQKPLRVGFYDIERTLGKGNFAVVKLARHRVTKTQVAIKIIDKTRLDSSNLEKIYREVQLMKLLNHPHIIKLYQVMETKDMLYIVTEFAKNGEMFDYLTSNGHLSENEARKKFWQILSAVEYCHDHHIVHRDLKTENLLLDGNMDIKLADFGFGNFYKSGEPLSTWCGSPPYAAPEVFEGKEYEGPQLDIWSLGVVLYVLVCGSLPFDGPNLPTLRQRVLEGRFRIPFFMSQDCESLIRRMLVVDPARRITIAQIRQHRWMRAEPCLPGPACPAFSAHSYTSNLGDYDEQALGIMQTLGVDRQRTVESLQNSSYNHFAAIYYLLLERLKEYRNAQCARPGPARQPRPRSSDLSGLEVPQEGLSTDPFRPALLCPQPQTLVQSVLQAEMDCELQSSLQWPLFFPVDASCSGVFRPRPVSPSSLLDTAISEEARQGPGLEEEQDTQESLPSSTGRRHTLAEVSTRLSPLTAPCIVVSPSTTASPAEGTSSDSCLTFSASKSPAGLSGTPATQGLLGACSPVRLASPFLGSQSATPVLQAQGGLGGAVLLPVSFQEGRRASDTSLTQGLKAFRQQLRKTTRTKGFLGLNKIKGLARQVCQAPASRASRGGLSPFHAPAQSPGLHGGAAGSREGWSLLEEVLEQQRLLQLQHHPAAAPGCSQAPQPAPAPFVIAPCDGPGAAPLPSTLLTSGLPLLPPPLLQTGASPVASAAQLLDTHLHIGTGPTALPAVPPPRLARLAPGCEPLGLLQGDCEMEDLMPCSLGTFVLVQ
Chain of Casein kinase I isoform alpha (P48729 2-337 limits assumed): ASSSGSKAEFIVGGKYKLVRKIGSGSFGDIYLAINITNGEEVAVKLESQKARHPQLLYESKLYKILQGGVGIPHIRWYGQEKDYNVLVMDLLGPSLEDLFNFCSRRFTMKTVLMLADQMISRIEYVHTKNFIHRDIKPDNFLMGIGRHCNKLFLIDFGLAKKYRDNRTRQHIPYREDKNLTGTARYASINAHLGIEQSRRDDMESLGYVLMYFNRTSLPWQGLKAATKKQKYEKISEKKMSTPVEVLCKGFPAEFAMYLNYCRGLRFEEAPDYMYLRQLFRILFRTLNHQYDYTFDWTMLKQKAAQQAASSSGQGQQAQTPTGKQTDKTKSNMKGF
Chain of Mitogen-activated protein kinase kinase kinase 1 (Q13233 whole entry): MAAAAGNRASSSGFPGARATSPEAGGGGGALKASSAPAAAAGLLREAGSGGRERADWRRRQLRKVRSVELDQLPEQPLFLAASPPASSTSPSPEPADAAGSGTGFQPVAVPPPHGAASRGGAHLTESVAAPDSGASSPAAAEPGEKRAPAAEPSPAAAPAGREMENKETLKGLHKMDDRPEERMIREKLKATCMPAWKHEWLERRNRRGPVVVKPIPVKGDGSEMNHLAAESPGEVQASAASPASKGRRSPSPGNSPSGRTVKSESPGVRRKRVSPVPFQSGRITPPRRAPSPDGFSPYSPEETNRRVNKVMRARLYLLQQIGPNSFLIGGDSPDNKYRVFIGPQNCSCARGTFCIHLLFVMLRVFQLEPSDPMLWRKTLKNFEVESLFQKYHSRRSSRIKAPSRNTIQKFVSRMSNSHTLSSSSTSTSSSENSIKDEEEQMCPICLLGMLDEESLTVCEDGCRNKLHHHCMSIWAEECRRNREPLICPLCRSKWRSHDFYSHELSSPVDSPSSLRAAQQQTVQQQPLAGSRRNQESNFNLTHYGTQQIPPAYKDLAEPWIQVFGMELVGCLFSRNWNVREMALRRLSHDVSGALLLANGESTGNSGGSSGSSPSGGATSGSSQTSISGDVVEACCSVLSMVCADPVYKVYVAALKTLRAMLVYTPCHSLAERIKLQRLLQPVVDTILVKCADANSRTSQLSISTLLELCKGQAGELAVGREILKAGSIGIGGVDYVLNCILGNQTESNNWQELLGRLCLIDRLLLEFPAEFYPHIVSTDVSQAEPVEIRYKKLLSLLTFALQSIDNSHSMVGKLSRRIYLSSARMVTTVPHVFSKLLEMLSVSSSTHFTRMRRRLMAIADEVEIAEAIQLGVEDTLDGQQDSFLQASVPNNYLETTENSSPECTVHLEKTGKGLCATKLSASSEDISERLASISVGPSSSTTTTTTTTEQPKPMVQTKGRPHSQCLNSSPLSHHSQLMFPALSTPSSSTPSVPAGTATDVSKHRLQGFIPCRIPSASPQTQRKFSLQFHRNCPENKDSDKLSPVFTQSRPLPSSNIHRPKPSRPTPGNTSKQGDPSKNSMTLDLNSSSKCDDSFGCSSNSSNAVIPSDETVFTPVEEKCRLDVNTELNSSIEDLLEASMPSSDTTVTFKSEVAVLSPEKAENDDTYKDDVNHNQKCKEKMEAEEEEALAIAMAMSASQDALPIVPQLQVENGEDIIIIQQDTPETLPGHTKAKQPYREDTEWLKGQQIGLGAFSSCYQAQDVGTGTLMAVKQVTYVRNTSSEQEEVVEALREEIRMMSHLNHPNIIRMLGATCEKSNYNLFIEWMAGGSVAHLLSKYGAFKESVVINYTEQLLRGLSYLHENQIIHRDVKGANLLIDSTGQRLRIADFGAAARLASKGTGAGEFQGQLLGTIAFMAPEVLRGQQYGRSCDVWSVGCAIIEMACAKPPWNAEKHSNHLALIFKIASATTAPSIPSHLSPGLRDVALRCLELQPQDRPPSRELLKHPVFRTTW
Chain of Phosphatidylinositol 4,5-bisphosphate 3-kinase catalytic subunit alpha isoform (Homo sapiens), P42336 [E545K] (P42336 whole entry E545K, canonical isoform): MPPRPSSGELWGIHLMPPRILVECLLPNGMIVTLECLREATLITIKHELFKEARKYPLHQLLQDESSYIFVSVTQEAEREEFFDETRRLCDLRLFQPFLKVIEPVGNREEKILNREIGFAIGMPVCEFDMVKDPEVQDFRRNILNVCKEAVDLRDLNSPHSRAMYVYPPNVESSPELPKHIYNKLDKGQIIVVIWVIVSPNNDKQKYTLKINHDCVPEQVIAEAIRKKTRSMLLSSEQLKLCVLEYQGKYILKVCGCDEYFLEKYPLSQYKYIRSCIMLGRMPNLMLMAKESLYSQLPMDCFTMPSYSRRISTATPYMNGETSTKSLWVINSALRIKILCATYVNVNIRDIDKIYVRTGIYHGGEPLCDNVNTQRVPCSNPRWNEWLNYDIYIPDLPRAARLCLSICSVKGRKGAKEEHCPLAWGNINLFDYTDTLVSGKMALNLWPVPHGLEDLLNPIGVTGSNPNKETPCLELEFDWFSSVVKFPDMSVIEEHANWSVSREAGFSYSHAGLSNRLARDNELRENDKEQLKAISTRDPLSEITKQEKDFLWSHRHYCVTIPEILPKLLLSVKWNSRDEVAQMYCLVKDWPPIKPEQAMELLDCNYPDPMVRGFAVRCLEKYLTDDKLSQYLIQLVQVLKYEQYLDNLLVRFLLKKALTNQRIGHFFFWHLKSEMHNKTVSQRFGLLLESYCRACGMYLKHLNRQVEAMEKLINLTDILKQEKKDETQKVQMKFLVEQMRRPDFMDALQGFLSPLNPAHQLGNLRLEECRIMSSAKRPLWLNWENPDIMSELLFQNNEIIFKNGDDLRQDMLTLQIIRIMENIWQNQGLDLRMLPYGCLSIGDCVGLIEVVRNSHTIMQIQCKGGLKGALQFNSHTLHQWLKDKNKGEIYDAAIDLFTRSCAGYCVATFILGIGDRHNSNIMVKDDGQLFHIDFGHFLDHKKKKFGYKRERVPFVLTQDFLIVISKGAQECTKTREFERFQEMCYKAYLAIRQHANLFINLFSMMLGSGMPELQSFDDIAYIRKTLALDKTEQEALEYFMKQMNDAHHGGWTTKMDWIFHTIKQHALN
Chain of Dual specificity protein kinase CLK4 (Q9HAZ1 whole entry, looked up): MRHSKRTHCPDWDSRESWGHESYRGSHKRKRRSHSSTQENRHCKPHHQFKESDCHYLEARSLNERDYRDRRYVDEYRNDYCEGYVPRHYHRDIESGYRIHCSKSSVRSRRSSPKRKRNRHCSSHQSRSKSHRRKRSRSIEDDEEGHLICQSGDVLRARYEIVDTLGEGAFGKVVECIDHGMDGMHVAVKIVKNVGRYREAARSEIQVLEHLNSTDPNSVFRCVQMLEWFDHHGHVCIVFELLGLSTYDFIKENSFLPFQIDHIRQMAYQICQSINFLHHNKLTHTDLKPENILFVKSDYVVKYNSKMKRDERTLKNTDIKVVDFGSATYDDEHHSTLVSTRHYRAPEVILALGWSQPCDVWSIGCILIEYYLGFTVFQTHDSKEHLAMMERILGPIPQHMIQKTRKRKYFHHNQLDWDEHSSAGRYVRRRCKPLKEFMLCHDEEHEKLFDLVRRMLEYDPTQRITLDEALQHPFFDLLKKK

**Q.** Which % of control [1] does the source give for `CCC(=O)N1CCN(c2ccc(-n3c(=O)ccc4cnc5ccc(-c6cnc7ccccc7c6)cc5c43)cc2C(F)(F)F)CC1` here?
**A.** The % of control was 5.2%.

**Q.** For `Cc1ccc(-c2ccc3c(ccc4sc5c(c43)NC[C@@H](C)NC5=O)n2)cn1`, which % of inhibition [2] is on record?
**A.** The % of inhibition was 47%.

**Q.** Which % of control [3] does the source give for `CN(C)CCOc1ccc(-c2nc(-c3ccncc3)c(-c3ccc4c(c3)CC/C4=N\O)[nH]2)cc1` here?
**A.** The % of control was 67%.

**Q.** What does the source list for `C=CC(=O)Nc1cccc(C(=O)Nc2ccc(Nc3cc(-c4[nH]c(SC)nc4C)ccn3)cc2)c1`?
**A.** % of control ([4]; at 1 µM): 70%; % of control ([4]; at 5 µM): 38%; % of control ([5]; at 1 µM): 107%; % of control ([5]; at 5 µM): 102%

**Q.** How did the % of control [6] turn out when `Cn1cc(-n2cnc3c(NCc4nc5cc(Cl)c(Cl)cc5[nH]4)nc(N4CCOCC4)nc32)cn1` was run?
**A.** The % of control was 4.54%.

**Q.** How did the dTM [7] turn out when `Cc1cc(CN)cc(C)c1-c1ncn(C)c1-c1cncn1C` was run?
**A.** The dTM was -1.04 K.

**Q.** What about the % activity [8] of the same compound?
**A.** Its % activity is over 80%.

**Q.** `CC[C@@H]1[C@H](F)C(=O)N[C@@H]1COc1nccc2cc(C(N)=O)c(OC)cc12` [ZIMLOVISERTIB] was tested. Which % of inhibition ([9]; at 0.01 µM) did it give?
**A.** Its % of inhibition is 3.3%.

**Q.** What about the % of inhibition ([9]; at 0.04 µM) of the same compound?
**A.** Its % of inhibition is 16.7%.

**Q.** And the % of inhibition ([9]; at 0.2 µM)?
**A.** Its % of inhibition is 6.9%.

**Q.** And the % of inhibition ([9]; at 1 µM)?
**A.** Its % of inhibition is 25.1%.

**Q.** And the % of inhibition ([9]; at 5 µM)?
**A.** Its % of inhibition is 56.2%.

**Q.** How did the pXC50 [10] turn out when `COc1cc(C(=O)N2CC[C@@H](O)[C@@H](N)C2)cc2nc(-c3cc4ccccc4n3CC3CC3)n(C)c12` was run?
**A.** The pXC50 was 4.7 M.

**Q.** `CNC(=O)Nc1ccc(-c2nc(N3CC4CCC(C3)O4)c3cnn(C4CCC5(CC4)OCCO5)c3n2)cc1` was tested. Which % of control [11] did it give?
**A.** The % of control was 58%.

**Q.** What does the source list for `COCC(=O)NC/C=C/c1ccc2ncnc(Nc3ccc(Oc4ccc(C)nc4)c(C)c3)c2c1` [CP-724714]?
**A.** % of control [12]: 98%; % of control [13]: 100%

**Q.** Which % of inhibition [14] does the source give for `CN1Cc2nccc(-c3cn(C)nc3-c3ccc(F)cc3)c2C1=O` here?
**A.** The % of inhibition was 2%.

**Q.** For `O[C@H]1CC[C@H](Nc2ncc3nc(Nc4c(F)cc(F)cc4F)n([C@H]4CCOC4)c3n2)CC1`, which % of control [15] is on record?
**A.** Its % of control is 97%.

**Q.** What does the source list for `CN(C)C/C=C/C(=O)Nc1ccc(C(=O)N2CCCC(Nc3ncc(Cl)c(-c4c[nH]c5ccccc45)n3)C2)cc1` (stereo not drawn)?
**A.** % of control [16]: 73%; % of control [17]: 14%
